Our source for the LC50 values is ChEMBL document CHEMBL1151822, “Saldedines A and B, dibromo proaporphine alkaloids from a Madagascan tunicate” (J Nat Prod, 2009).

The nature of this series: Toxicity in Artemia salina. The series is classed as organism-based. The note with it: in vivo, read-out: LD50 (the source's name).

Consider `COc1cc2c3c(c1O)C1(C=C(Br)C(=O)C(Br)=C1)C[C@@H]3N(C)CC2` [SALDEDINE A], for which the LC50 was found to be 4.4 µM.
Under `COc1cc2c3c(c1O)C1(C=C(Br)C(O)C(Br)=C1)C[C@@H]3N(C)CC2` (some centres not stated) [SALDEDINE B] stands 10.9 µM.
